Source: ChEMBL document CHEMBL3046890, “Synthesis and Herbicidal Activity of Sulfonylureas; SL-950 and Its Related Compounds” (1995)

Columns and labels:
Type in all cases: functional
[1] = system: Zea mays; assay: Post emergence phyototoxic activity against Zea mays (maize) plants assessed as inhibition of plant growth at 125 g ai/ha measured 22 to 37 days after compound application under greenhouse conditions; details: read-out: GI
[2] = system: Capsella bursa-pastoris; assay: Post-emergence herbicidal activity against four-leafstage Capsella bursa-pastoris assessed as efficacy of weed growth control at 40 g ai/ha under greenhouse conditions
[3] = system: Cyperus rotundus; assay: Post-emergence herbicidal activity against four to five-leaf stage Cyperus rotundus assessed as efficacy of weed growth control at 750 g ai/ha under greenhouse conditions
[4] = system: Commelina communis; assay: Post emergence herbicidal activity against two-leaf stage Commelina communis (Asiatic dayflower) assessed as efficacy of weed growth control at 750 g ai/ha under greenhouse conditions
[5] = system: Amaranthus viridis; assay: Post-emergence herbicidal activity against three-leaf stage Amaranthus viridis assessed as efficacy of weed growth control at 750 g ai/ha under greenhouse conditions
[6] = system: Echinochloa crus-galli; assay: Post-emergence herbicidal activity against three-leaf stage Echinochloa crus-galli (barnyard grass) assessed as efficacy of weed growth control at 80 g ai/ha under greenhouse conditions
[7] = system: Cyperus microiria; assay: Post-emergence herbicidal activity against three-leaf stage Cyperus microiria assessed as efficacy of weed growth control at 40 g ai/ha under greenhouse conditions
[8] = system: Chenopodium album; assay: Post-emergence herbicidal activity against two-leaf stage Chenopodium album assessed as efficacy of weed growth control at 80 g ai/ha under greenhouse conditions

In the case of `COc1cc(OC)nc(NC(=O)NS(=O)(=O)c2ncccc2C(=O)N(C)C)n1` [NICOSULFURON], the inhibition of growth at 125 g/ha [1] is reported as 0%, the Efficacy [2] is reported as 70% and the Efficacy [3] is reported as 50%. For the same molecule, the Efficacy [4] was 95%, the Efficacy [5] was 50% and the Efficacy [6] was 95%. The Efficacy [7] was 95% and the Efficacy [8] was 95%.
